Measured values published in patent US6417178B1, “Amyloid binding nitrogen-linked compounds for the antemortem diagnosis of alzheimer's disease, in vivo imaging and prevention of amyloid deposits” (University of Pittsburgh, priority 1994, dated 2002).
Values joined by “and” are separate entries in the source; they are usually repeats but may differ in a detail not shown here. Equal values may be shown once. Read-outs that look alike come from different tables or passages of the source.

Experiments:
[1] = target: T1, synthetic peptide, Aβ (10-43) (Homo sapiens, UniProt P05067); assay: Inhibition of [14C]Chrysamine G binding to Aβ (10-43); settings: for binding affinity in words: inhibition of [14C]Chrysamine G binding to Aβ (10-43), compared with Chrysamine G
T1 construct: The 10-43 amino acid fragment of Aβ was synthesized; made in house; host or cells: chemical (FMOC) peptide synthesis, no expression host
T1 sequence (P05067 681-714): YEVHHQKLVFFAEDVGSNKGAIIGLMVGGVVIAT
Method: (§1) Binding assays were performed in 12×75 mm borosilicate glass tubes. […] To the above solution, 25 μl of a 0.36 mg/ml suspension of Aβ (10-43) in H2O was added and 10% ethanol was added to bring the volume to 950 μl. […] The binding mixture was incubated for 30 min at room temperature.
Ki is defined as IC50/(1+[L]/KD ), where [L] is the concentration of [^14C]

[2] = test system: rat pheochromocytoma (PC-12) cells; settings: for effect on toxicity induced by 1 μM Aβ (25-35): MTT reduction (FIG. 14)
Method: Rat pheochromocytoma cells (PC-12) were grown in RPMI 1640 media with 10% fetal bovine serum. Approximately 5,000 exponentially growing cells were plated in 96-well plates in a volume of 100 μl of media and allowed to incubate at 37° C. overnight. […] The cells were incubated for 24 hrs prior to the addition of 13.3 μl of 5 mg/ml MTT (3,(4,5-dimethylthiazol-2-yl)2,5-diphenyltetrazolium bromide) in sterile phosphate buffered saline. After 4.5 hrs at 37° C., 100 μl of extraction buffer (20% w/v SDS in 50% DMF/water; pH adjusted to 4.7 with 2.5% of 80% acetic acid and 2.5% 1N HCl) was added and the plates were incubated overnight. Hansen et al., J. Immunol. Methods 119: 203 (1989). Color development was then measured at 560 nm. Maximum viability was defined as the absorbance of control wells to which only the 20 μl of distilled, deionized H2O was added. Maximum toxicity was defined by wells in which the cells were lysed by addition of 0.1% (final concentration) of Triton X-100.

[3] = Octanol/water partitioning; assay type: physicochemical; settings: for octanol/water partition coefficient: 1-octanol / phosphate buffered saline pH 7.4
Method: The mixture was then centrifuged at 1,000 g to facilitate the formation of two clear phases. […] Concentrations were determined after correction for the molar absorptivity differences in the two solvents and the partition coefficient expressed as the concentration in the octanol layer divided by the concentration in the aqueous layer. Experiments were done in triplicate.

[4] = guinea pigs; cited from earlier work
[5] = test system: rat pheochromocytoma (PC-12) cells; settings: previously reported; cited from earlier work
[6] = target: synthetic Aβ (10-43) peptide (Homo sapiens, UniProt P05067); assay: Scatchard analysis of Chrysamine G binding to synthetic Aβ (10-43)
synthetic Aβ (10-43) peptide, sequence (P05067 681-714): as above
Source text: Hilbich et al., J. Mol. Biol. 218: 149 (1991). The 10-43 amino acid fragment of Aβ was synthesized with 9-fluorenylmethyl chloroformate (FMOC) chemistry by the Peptide Synthesis Facility of the University of Pittsburgh. […] The peptide was further purified by the method of Hilbich et al. which, in brief, consisted of sequential size-exclusion chromatography on a Biogel P10 column (2×180 cm, 200-400 mesh, Biorad, Richmond, Calif.) in 70% formic acid followed by a second elution through a Biogel P4 column (2×180 cm, 200-400 mesh) in 1M acetic acid. Hilbich et al., J. Mol. Biol. 218: 149 (1991). The peptide was lyophilized and stored at −80° C. until used in the binding assays.
as §1

[7] = target: Aβ (10-43) (Homo sapiens, UniProt P05067); assay: Kinetics of [14C]Chrysamine G binding to Aβ (10-43)
Aβ (10-43), sequence (P05067 681-714): as above
Method: This mixture was vortexed and incubated for 30 min at room temperature.
Bennett, J. P. and Yamamura, H. I. in NEUROTRANSMITTER RECEPTOR BINDING (N.Y.: Raven Press 1985) pp. 61-89. […] The curve in FIG. 6C follows the equation: […]

[8] = test system: control brain homogenates; assay: [14C]CG binding to control brain homogenates; set-up: species or system human
[9] = test system: Down's syndrome brain samples; assay: [14C]Chrysamine G binding to Down's syndrome brain samples; set-up: species or system human; settings: two patients; ratio to cerebellum (FIG. 9C)
Source text: Down's syndrome patients all develop deposits of Aβ by their fourth decade and many develop AD. Wisniewski et al., Neurology 35: 957 (1985); Schapiro et al., Neurobiol. Aging 13, 723 (1992).

[10] = Tissue levels after i.v. injection of [14C]Chrysamine G in mice (blood-brain barrier, metabolism); assay type: in vivo, Swiss-Webster mice; settings: brain and liver extracted 60 min after i.v. injection
Method: Mice were sacrificed by cervical dislocation at intervals of 15 min, 35 min, 1 hr, 4 hr, and 24 hr after injection. The carotid blood, brain, liver, and kidneys were rapidly obtained, weighed, and homogenized in distilled/deionized H2O using a ground glass homogenizer. An aliquot was weighed into an 18.0 ml plastic scintillation vial (Beckman Poly-Q-Vial) and counted after addition of 10.0 ml of scintillation cocktail (Cytoscint®-ES (ICN)) and overnight equilibration.
Brain and liver were then removed and extracted with a Folch procedure. Folch et al., J. Biol. Chem. 226: 447 (1957). In both tissues, over 95% of the extracted radioactivity was contained in the organic layer. The organic layer was evaporated to dryness, resuspended in a minimal amount of 10% methanol/90% ACN, and injected onto a silica column (Prep Nova Pak HR Silica, 7.8×300 mm, Waters, Milford, Mass.) and eluted isocratically with the same solvent. Under these conditions, 99% of the radioactivity is eluted in the solvent front, but most lipids are retained longer, making the fraction eluting in the solvent front suitable for injection onto the reverse-phase C4 column system described above. […] One minute fractions were collected and counted after addition of 10 ml of Cytoscint®-ES.

[11] = in vivo; settings: mouse
[12] = target: AD brain homogenates (Homo sapiens, UniProt P05067); assay: [14C]CG binding to AD brain homogenates
AD brain homogenates (Homo sapiens, UniProt P05067), sequence (P05067 18-770): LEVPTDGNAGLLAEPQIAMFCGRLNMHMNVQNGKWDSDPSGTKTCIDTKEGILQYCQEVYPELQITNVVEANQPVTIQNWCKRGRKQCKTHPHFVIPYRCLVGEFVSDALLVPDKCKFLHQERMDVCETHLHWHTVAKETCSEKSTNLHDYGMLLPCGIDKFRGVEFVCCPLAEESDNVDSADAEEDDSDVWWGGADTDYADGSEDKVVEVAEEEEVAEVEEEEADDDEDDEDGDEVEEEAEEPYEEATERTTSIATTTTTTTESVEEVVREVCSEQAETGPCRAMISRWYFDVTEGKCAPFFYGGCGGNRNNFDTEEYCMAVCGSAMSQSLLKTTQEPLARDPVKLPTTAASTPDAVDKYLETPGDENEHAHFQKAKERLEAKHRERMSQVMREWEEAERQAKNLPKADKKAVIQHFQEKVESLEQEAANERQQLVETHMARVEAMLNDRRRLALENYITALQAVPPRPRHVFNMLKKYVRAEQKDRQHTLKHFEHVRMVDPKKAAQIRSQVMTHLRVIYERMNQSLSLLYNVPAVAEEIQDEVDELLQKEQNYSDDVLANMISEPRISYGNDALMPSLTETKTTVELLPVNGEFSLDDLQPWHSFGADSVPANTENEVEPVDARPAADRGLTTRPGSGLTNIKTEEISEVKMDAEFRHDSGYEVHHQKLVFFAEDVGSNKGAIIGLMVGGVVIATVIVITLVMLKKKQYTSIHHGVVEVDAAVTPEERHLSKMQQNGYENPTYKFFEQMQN
Method: (§2) Autopsy brain samples were obtained from the Neuropathology Core of the Alzheimer's Disease Research Center of the University of Pittsburgh. […] Brain samples from eight control (ages 58-75), eleven AD (ages 61-84), and two Down syndrome brains were studied. There were six high-plaque (>20 NPs/×200 magnification) and five low-plaque (<20 NPs/×200 magnification) AD brains. […] Autopsy samples were immediately frozen at −70° C. and stored at that temperature until homogenized. […] The Bielschowsky silver impregnation method was used to identify NPs and NFTs and Congo red staining was used to identify cerebral amyloid angiopathy.
(§3) Aliquots of 25-150 μl tissue (about 25-300 μg of protein by the method of Lowry et al., J. Biol, Chem. 193: 265 (1951)) were incubated in 12×75 mm borosilicate glass tubes at room temperature with 10-750 nM [^14C]CG (26.8 Ci/mole) in a final volume of 1.0 ml of 10% ethanol for 30 min at room temperature. The standard conditions employed about 150 μg of protein and 75 nM [^14C]CG for the cerebellar ratio studies and about 75 μg of protein and 150 nM [^14C]CG for the correlative studies with NPs, NFTS, and amyloid angiopathy. Ethanol was necessary to prevent the micelle formation which occurs with diazo dye derivatives, since the micelles are trapped by the filter even in the absence of tissue. Bound and free radioactivity were separated by vacuum filtration through Whatman GF/B filters using a Brandel M-24R Cell Harvester (Gaithersburg, Md.) followed by two 3-ml washes with 10% ethanol at room temperature. Filters were equilibrated overnight in 4 ml Cytoscint®-ES scintillant (ICN Biomedicals, Inc., Irvine, Calif.) in 7.0 ml plastic scintillation vials before counting. Saturable (specific) binding was defined as total binding minus residual (non-saturable) binding in the presence of 20 μM unlabelled CG. In all binding assays, incubations were done at least in triplicate and the results expressed as mean±standard error unless otherwise specified. Results were expressed either in absolute terms of fmol [^14C]CG bound/μg protein in a given brain area, or as a ratio of the fmol/μg protein in that brain area to the fmol/μg protein in the cerebellum of the same brain.

[13] = test system: AD brain homogenates; assay: [14C]CG binding to AD brain homogenates; settings: for total binding, AD: high and low-plaque AD brains combined
Method: as §2, §3

[14] = Ki for inhibition of [14C]Chrysamine G binding to Aβ (10-43), Ki=IC50/(1+[L]/KD), KD 0.26 μM
[15] = PC-12 cells, Aβ (25-35), MTT reduction

O=C(O)c1cc(F)cc(N=Nc2ccc(-c3ccc(N=Nc4cc(F)cc(C(=O)O)c4O)cc3)cc2)c1O [(5-FSA)CG, 4,4′-bis(2-hydroxy-3-carboxy-5-fluorophenylazo)-biphenyl]
Ki [1, 14]: 1.16 ± 0.19 µM
binding affinity in words [1]: one-third as potent as Chrysamine G

O=C(O)c1cc(N=Nc2ccc(-c3ccc(N=Nc4ccc(O)c(C(=O)O)c4)cc3S(=O)(=O)O)c(S(=O)(=O)O)c2)ccc1O [2,2′-(SO3)2CG]
binding affinity in words [1]: inactivity

O=C(O)c1cc(N=Nc2ccc(-c3ccc(N=Nc4ccc(O)c(C(=O)O)c4)c(Cl)c3)cc2Cl)ccc1O [3,3′-Cl2CG]
binding affinity in words [1]: about half that of Chrysamine G

O=C(O)c1cc(N=Nc2ccccc2)ccc1O [aniline derivative]
energy of binding [1]: 5.5 kcal/mol
Ki ([1]; read-out: Ki for inhibition of [14C]Chrysamine G binding to Aβ (10-43)): 73 µM

Cc1cc(-c2cc(C)c(N=Nc3ccc(O)c(C(=O)O)c3)c(C)c2)cc(C)c1N=Nc1ccc(O)c(C(=O)O)c1 [tetramethyl analog of Chrysamine G, 4,4′-bis(3-carboxy-4-hydroxyphenylazo)-3,3′,5,5′-tetramethylbiphenyl]
Ki [1, 14]: 0.75 ± 0.09 µM
binding affinity in words [1]: about twice that of Chrysamine G

COC(=O)c1cc(N=Nc2ccc(-c3ccc(N=Nc4ccc(O)c(C(=O)OC)c4)cc3)cc2)ccc1O [CG(COOMe)2, 4,4′-bis(3-methoxycarbonyl-4-hydroxyphenylazo)-biphenyl]
decrease in affinity / loss of activity relative to Chrysamine G [1]: about 200 fold

Oc1ccc(N=Nc2ccc(-c3ccc(N=Nc4ccc(O)cc4)cc3)cc2)cc1 [phenol derivative]
binding affinity in words [1]: completely destroyed binding affinity
effect on toxicity induced by 1 μM Aβ (25-35) ([2]; PC-12 cells): no protective effects

Nc1c(/N=N/c2ccc(-c3ccc(/N=N/c4cc(S(=O)(=O)O)c5ccccc5c4N)cc3)cc2)cc(S(=O)(=O)O)c2ccccc12 [Congo red, reference compound]
Ki [1, 14]: 2.82 µM and 2.8 µM
octanol/water partition coefficient [3]: 0.665±0.037
brain/kidney ratio [4]: approximately 0.07
concentration achieving complete protection [5]: 20 µM
concentrations protecting against Aβ-induced toxicity [5]: over 2 μM

O=C(O)c1cc(N=Nc2ccc(-c3ccc(N=Nc4ccc(O)c(C(=O)O)c4)c(I)c3)cc2I)ccc1O [3,3′-I2CG]
binding affinity in words [1]: about half that of Chrysamine G
octanol/water partition coefficient [3]: 112.9±7.3

O=C(O)c1cc(N=Nc2ccc(-c3ccc(N=Nc4ccc(O)c(C(=O)O)c4)c(Br)c3)cc2Br)ccc1O [3,3′-Br2CG]
binding affinity in words [1]: about half that of Chrysamine G

O=C(O)c1cc(N=Nc2ccc(-c3ccc(N=Nc4ccc(O)c(C(=O)O)c4)cc3)cc2)ccc1O [Chrysamine G, 4,4′-bis(3-carboxy-4-hydroxyphenylazo)-biphenyl]
Kd ([6]; Scatchard, two independent binding site model, read-out: KD, higher affinity component): 0.257 µM and 0.26 µM
Bmax, higher affinity component ([6]; Scatchard, two-site model): 3.18 nmoles Chrysamine G/mg Aβ (10-43)
Bmax, lower affinity component ([6]; Scatchard, two-site model, less well defined): 18.7 nmoles Chrysamine G/mg Aβ (10-43)
Kd ([6]; whether measured by Scatchard analysis, kinetic methods, or inhibition of binding, read-out: dissociation constant): 0.25 to 0.4 µM
time by which association is essentially complete ([7]; [Chrysamine G]=112 μM): ≤ 1 min
Kd ([7]; from kinetic constants, read-out: KD=k−1/k1): 0.34 µM
Ki [1, 14]: 0.37 ± 0.04 µM
energy of binding ([1]; ΔG=−RT ln Keq, Keq=1/KD≈1/Ki): roughly 38 KJ/mole
Bmax, typical control brain sample (FIG. 4B) [8]: 614 fmol/μg protein
total binding, Control ([8]; Cerebellum): 75 ± 13 (n = 8) fmol/μg protein
Bmax (pmol/μg prot) ([8]; Control (n = 6)): 0.576 ± .092 pmol/μg prot
Kd ([8]; Control (n = 6), read-out: KD): 0.47 ± 0.049 µM
total binding, Control ([8]; Frontal Pole): 58 ± 8 (n = 6) fmol/μg protein
total binding, Control ([8]; Head of Caudate): 73 ± 11 (n = 4) fmol/μg protein
total binding, Control ([8]; Inferior Parietal): 76 ± 13 (n = 8) fmol/μg protein
total binding, Control ([8]; Occipital): 64 ± 16 (n = 8) fmol/μg protein
total binding, Control ([8]; Superior Temporal): 66 ± 17 (n = 8) fmol/μg protein
total binding, Control ([8]; Superior/Middle Frontal): 54 ± 10 (n = 8) fmol/μg protein
Kd ([8]; read-out: KD, typical control brain sample (FIG. 4B)): 0.48 µM
binding in Down's syndrome brain compared with control [9]: above the control range
times more lipophilic than Congo red ([3]; from partition coefficients): approximately 90
recovered radioactivity co-eluting with authentic Chrysamine G on reverse phase HPLC [10]: > 95%
MTT reduction with compound alone versus control [2]: no significant difference
concentration at which the protective effect is evident [2, 15]: 0.2 µM
concentration range showing effects [2, 15]: 0.1 to 1.0 µM
effect on toxicity induced by 1 μM Aβ (25-35) ([2]; PC-12 cells): protective effects at 0.1 and 1 μM
LD50 at 72 h [11]: > 100 mg/kg
Bmax (pmol/μg prot) ([12]; AD (n = 5)): 0.784 ± .061 pmol/μg prot
Bmax, typical AD brain sample (FIG. 4B) ([12]; AD brain sample with 48 NP/×200 magnification): 790 fmol/μg protein
saturable (specific) binding as share of total binding ([13]; AD brain homogenates): 60-80%
total binding, AD ([13]; Cerebellum): 73 ± 9 (n = 11) fmol/μg protein
total binding, AD ([13]; Frontal Pole): 124 ± 16 (n = 10) fmol/μg protein
total binding, AD ([13]; Head of Caudate): 123 ± 22 (n = 7) fmol/μg protein
total binding, AD ([13]; Inferior Parietal): 137 ± 19 (n = 11) fmol/μg protein
total binding, AD ([13]; Occipital): 95 ± 12 (n = 11) fmol/μg protein
total binding, AD ([13]; Superior Temporal): 121 ± 14 (n = 11) fmol/μg protein
total binding, AD ([13]; Superior/Middle Frontal): 130 ± 21 (n = 11) fmol/μg protein
Bmax in AD brain higher than control ([13]; not significant (p=0.09)): 36%
KD in AD brain lower than control ([13]; not significant (p=0.29)): 16%

O=C(O)c1cc(N=Nc2ccc(-c3ccc(N=Nc4ccc(O)c(C(=O)O)c4)c(C(=O)O)c3)cc2C(=O)O)ccc1O [3,3′-(COOH)2CG]
decrease in affinity / loss of activity relative to Chrysamine G [1]: 7 fold

O=C(O)c1ccccc1O [salicylic acid, reference compound]
binding affinity in words [1]: total lack of binding activity
